According to US20180042918A1, “RESPIRATORY INFECTION TREATING AGENT” (KYORIN PHARMACEUTICAL CO., LTD., priority 2015, published 2018):
≈ marks a conversion by molar mass, not a printed value. Like-named read-outs stand apart in the source and are kept apart here.

Assays:
S. pneumoniae IID553 = assay: microbe, parasite or virus in culture; format: cell-based; details: Streptococcus pneumoniae
[1] = AUC and Cmax, plasma concentration by HPLC after repeated oral doses; format: in vivo; details: male, human, Japanese healthy adult males, oral 75 mg once daily for seven days, day 7, plasma
Protocol: Six Japanese healthy adult males received oral doses of 75 mg compound D once daily for seven consecutive days. The plasma concentration of compound D was measured by the HPLC method, and the pharmacokinetic parameters were calculated.

S. pneumoniae KY-9 [2] = assay: Antibacterial activity against Streptococcus pneumoniae in vitro, CLSI microdilution; format: cell-based; details: KY9
Protocol: The antibacterial activities in vitro of the compound D, garenoxacin, and levofloxacin against a strain in a mouse infected with Streptococcus pneumoniae (S. pneumonia KY-9) were measured in accordance with a CLSI microdilution method.

[3] = Concentration in tissue (human, oral administration): epithelial lining fluid, alveolar macrophages, plasma; format: in vivo; details: male, oral single dose 75 mg; for Kp: over 1 to 24 hours
Protocol: Concentration of compound D in lung tissue (epithelial lining fluid and alveolar macrophages) and plasma was measured to investigate intrapulmonary distribution of compound D after oral single administration of this drug, with reference to a method in Document (Antimicrobial Agents and Chemotherapy, February 2010, pp. 866-870).
The measurement was as follows. Healthy adult male volunteers were given oral single dose of compound D (75 mg). The bronchoalveolar lavage fluid and blood samples were collected from the subjects at 1, 2, 4, 6, and 24 hours after the administration. The collection of the fluid and blood samples was carried out at each time point for six subjects. The bronchoalveolar lavage fluid was centrifuged to separate from epithelial lining fluid and alveolar macrophages for measurement of the drug concentration. The concentrations of compound D in lung tissue and plasma were measured by LC/MS/MS.

S. pneumoniae KY-9 [4] = assay: Number of bacteria in the lung, mouse lung infection; format: in vivo, Streptococcus pneumoniae
Protocol: S. pneumoniae KY-9 was inoculated at 7.4×10^5 CFU/mouse via the respiratory tract into the lung in a mouse in which cyclophosphamide had been administrated. 2.9 to 3.1 hours, 17.3 to 19.1 hours, and 24.4 to 26.1 hours after the inoculation, the drug (the compound D, levofloxacin, or garenoxacin) was subcutaneously administrated (SC) or orally administrated (PO) three times in total. The number of bacteria in the lung 16.5 to 17.0 hours after the final administration was measured.
“*” described in FIGS. 1 and 2 means that a significant difference of p<0.05 in a Vehicle group was observed, and “**” means that a significant difference of p<0.001 in the Vehicle group was observed (Dunnett's multiple comparison test, parametric).
Here, CFU is an abbreviation of Colony Forming Unit, and represents the unit of number of bacteria. Log CFU/Lung means the number of viable bacteria in the lung. Log CFU/Lung was determined as follows. The lung obtained from the mouse was homogenated to obtain a bacterial culture. The bacterial culture was appropriately diluted, applied to an agar plate medium, and cultured. Log CFU/Lung was determined on the basis of the number of developed colonies.

[5] = Clinical efficacy (cure rate) in patients with community-acquired pneumonia; format: in vivo, human; details: oral 75 mg once daily for 7 days, seven days after treatment completion
Protocol: We investigated efficacy of compound D for the patients with community-acquired pneumonia. 50 patients with community-acquired pneumonia were orally administered 75 mg of compound D once daily for 7 days. The clinical efficacy (cure rate) was evaluated at seven days after treatment completion. The clinical trial was performed in accordance with a part of evaluation on patients with community-acquired pneumonia (pp. 34 to 38) in “general guidelines for the evaluation of new antimicrobial agents for the treatment of respiratory tract infections (second version).”

[6] = consecutive administration, daily dose of 400 mg; cited from earlier work
[7] = 400 mg, patients with bacterial pneumonia; cited from earlier work
[8] = human, 2.5 to 3.5 hours after administration; cited from earlier work
[9] = alveolar macrophages, read-out: TISSUE DISTRIBUTION RATIO, ALVEOLAR MACROPHAGES
[10] = epithelial lining fluid, read-out: TISSUE DISTRIBUTION RATIO, ALVEOLAR EPITHELIAL LINING FLUID

Q: Which results are given for COc1c(N2C[C@H](CNC3CC3)[C@H](F)C2)c(F)cc2c(=O)c(C(=O)O)cn(CCF)c12.Cl [Compound D, 7-[(3S,4S)-3-{(cyclopropylamino)methyl}-4-fluoropyrrolidine-1-yl]-6-fluoro-1-(2-fluoroethyl)-8-methoxy-4-oxo-1,4-dihydroquinoline-3-carboxylic acid hydrochloride]?
A: MIC (S. pneumoniae IID553): 0.06 µg/mL; AUC ([1]; read-out: area under the curve (AUC)): 20600 ng·h/mL; Cmax ([1]; read-out: maximum drug concentration (Cmax)): 998 ng/mL; MIC (S. pneumoniae KY-9 [2]): 0.06 µg/mL; Kp at 1 h [3, 9]: 31.9; Kp at 2 h [3, 9]: 18.5; Kp at 4 h [3, 9]: 21.9; Kp at 6 h [3, 9]: 56.4; Kp at 24 h [3, 9]: 38; Kp ([3]; alveolar macrophages, read-out: tissue distribution ratio in alveolar macrophages, range): 18.5 to 56.4; Kp at 1 h [3, 10]: 22.5; Kp at 2 h [3, 10]: 18.4; Kp at 4 h [3, 10]: 16.5; Kp at 6 h [3, 10]: 15.2; Kp at 24 h [3, 10]: 15; Kp ([3]; epithelial lining fluid, read-out: tissue distribution ratio in epithelial lining fluid, range): 15 to 22.5; therapeutic effect, number of bacteria in the lung (S. pneumoniae KY-9 [4]; oral administration): excellent as compared with garenoxacin and levofloxacin; decrease in number of bacteria in the lung versus Vehicle (S. pneumoniae KY-9 [4]; subcutaneous, 6.3 mg and 25 mg/kg): significant dose-dependent decrease; difference in number of viable bacteria in the lung, compound D versus garenoxacin (S. pneumoniae KY-9 [4]; subcutaneous, 25 mg/kg groups): about 1,000 times; clinical efficacy (cure rate) [5]: 90.0%

Q: With C[C@H]1NCc2cc(-c3ccc4c(=O)c(C(=O)O)cn(C5CC5)c4c3OC(F)F)ccc21 [GRNX, garenoxacin] as the molecule, how does the MIC (S. pneumoniae IID553) read?
A: 0.06 µg/mL (≈ 0.141 µM)

Q: What about the AUC [6] of the same molecule?
A: 110900 ng·h/mL

Q: And the Cmax [6]?
A: 11060 ng/mL

Q: And the MIC (S. pneumoniae KY-9 [2])?
A: 0.03 µg/mL (≈ 0.0704 µM)

Q: What about the “significant decrease in number of bacteria in the lung versus Vehicle” value (S. pneumoniae KY-9 [4]; subcutaneous, 6.3 mg/kg) of the same molecule?
A: not observed

Q: What about the “significant decrease in number of bacteria in the lung versus Vehicle” value (S. pneumoniae KY-9 [4]; subcutaneous, 25 mg/kg) of the same molecule?
A: a significant decrease in number of bacteria in the lung was observed

Q: What about the clinical efficacy rate [7] of the same molecule?
A: 94.9%

Q: What about the “tissue distribution ratio in the alveolar macrophages” value [8] of the same molecule?
A: 11.15±8.16

Q: And the “tissue distribution ratio in the epithelial lining fluid” value [8]?
A: 0.95±0.41
